These results are taken from patent US7101568B2, “Methods and compositions for treating solid tumors” (Guilford Pharmaceuticals, Inc., priority 1999, dated 2006).

The subject of assay [1] is A549 tumor nodules. Description: Murine tumor nodule model, A549 tumor volume doubling time. To be noted: A549, 24 mg/kg paclitaxel. Format: in vivo, mouse.
Description: Athymic nude Balb/c mice were engrafted with human non-small cell lung cancer cell lines (A549 and H1299, both of which were obtained from the American Type Culture Collection).
(§1) The cells were grown to confluence in DMEM/F12 medium (Mediatech, Herndon, Va.) supplemented with 10% fetal bovine serum (“growth medium”) under antibiotic-free conditions at 37° in a 5% CO2 atmosphere. After growing under standard these tissue culture conditions, the cells were enzymatically detached, enumerated, and the concentration was adjusted as required.
(§2) The cells were mixed 1:1 with Matrigel™ as an enhancer for engraftment, and 2×10^6 cells were injected subcutaneously on the flanks. Tumors were allowed to grow until achieving a volume of approximately 200-400 mm^3, as determined by the formula: Tumor volume=(length)×(width)×(height) The dimensions of the tumor on each test animal were measured directly with calipers.
Various formulations of paclitaxel were administered to the test animals bearing tumors, either systemically or intratumorally. Each animal was weighed at the time of treatment so that dosages could be adjusted to achieve the mg/kg amounts reported. Systemic administration was achieved by injecting the test composition into the intraperitoneal cavity of the test animal. For intraperitoneal (“IP”) injections, the animals received a total injection volume of approximately 1 mL.
Intratumoral administration (“IT”), on the other hand, was accomplished by the following procedure: • (1) injecting a single volume of about 100 μl (0.1 mL) the test composition into the center of the tumor nodule with a 21-25 gauge needle over a time period of about 10-20 seconds; • (2) infusing the volume over about 10-15 seconds, and then leaving the needle in place for an additional time of about 10-20 seconds; and • (3) withdrawing the needle. Following the treatments, all mice were tagged, and the tumors were measured three times weekly with calipers. Test animals were also weighed once weekly.
The tumor volume doubling time was determined from the tumor measurements in all treatment groups.
In assay [2] the test system is H1299 tumor nodules. Description: Murine tumor nodule model, H1299 tumor volume doubling time. In kind it is in vivo, mouse. To be noted: H1299, 24 mg/kg paclitaxel.
Description: A murine tumor nodule model, a widely used and accepted model for investigating the efficacy of therapies for solid tumors, was used to establish the utility of sustained release for solid tumors. Athymic nude Balb/c mice were engrafted with human non-small cell lung cancer cell lines (A549 and H1299, both of which were obtained from the American Type Culture Collection).
as §1, §2
Various formulations of paclitaxel were administered to the test animals bearing tumors, either systemically or intratumorally. Each animal was weighed at the time of treatment so that dosages could be adjusted to achieve the mg/kg amounts reported. […]
Intratumoral administration (“IT”), on the other hand, was accomplished by the following procedure: • (1) injecting a single volume of about 100 μl (0.1 mL) the test composition into the center of the tumor nodule with a 21-25 gauge needle over a time period of about 10-20 seconds; • (2) infusing the volume over about 10-15 seconds, and then leaving the needle in place for an additional time of about 10-20 seconds; and • (3) withdrawing the needle. Following the treatments, all mice were tagged, and the tumors were measured three times weekly with calipers. […]
Time-dependent changes in H1299 tumor nodule growth and/or sizes following different treatments were determined. […]
The mark [3] stands for this setting: intratumoral, listed as conventional paclitaxel.

Each structure is given as a SMILES string.

In the case of `CC(=O)O[C@H]1C(=O)[C@@]2(C)[C@H]([C@H](OC(=O)c3ccccc3)[C@]3(O)C[C@H](OC(=O)[C@H](O)[C@@H](NC(=O)c4ccccc4)c4ccccc4)C(C)=C1C3(C)C)[C@]1(OC(C)=O)CO[C@@H]1C[C@@H]2O` [conventionally formulated paclitaxel, paclitaxel], the “tumor volume doubling time” value in assay [1] (intraperitoneal) came out at 11.5 ± 2.3 days; in assay [1] (intratumoral) it was 10.2 ± 4.7 days; in assay [1] (setting [3]) it was 10 days; in assay [2] (intraperitoneal), 12 ± 1.9 days; in assay [2] (intratumoral), 11.2 ± 1.9 days; in assay [2] (setting [3]) it was 11 days.
